Experimental data published in patent US11739074B2, “Ras inhibitors” (Revolution Medicines, Inc., priority 2019, dated 2023).
Read-outs that look alike come from different tables or passages of the source.

Assays:
Type in all cases: cell-based
NCI-H358 (K-Ras G12C) = assay: CellTiter-Glo cell viability assay, H358; conditions: Homo sapiens, NCI-H358, 120 h
Description: Determination of Cell Viability in RAS Mutant Cancer Cell Lines
Protocol: CellTiter-Glo® Cell Viability Assay
Note—The following protocol describes a procedure for monitoring cell viability of K-Ras mutant cancer cell lines in response to a compound of the invention. Other RAS isoforms may be employed, though the number of cells to be seeded will vary based on cell line used.
Test compounds (132.5 nL) were directly dispensed into the assay plates containing cells. […] On day 5, assay plates and their contents were equilibrated to room temperature for approximately 30 minutes. […] Luminescence was measured using the PerkinElmer Enspire. Data were normalized by the following: (Sample signal/Avg. DMSO)*100. The data were fit using a four-parameter logistic fit.

AsPC-1 (K-Ras G12D) [1] = assay: CellTiter-Glo cell viability assay, AsPC-1; conditions: Homo sapiens, ASPC1, 120 h
In short: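 Viability is scored by CellTiter-Glo luminescence on day 5 of compound treatment, relative to vehicle (DMSO) wells set as 100%, with a four-parameter logistic fit.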

AsPC-1 (K-Ras G12D) [2] = assay: Potency assay: pERK in AsPC-1 cells; conditions: Homo sapiens
[3] = NCI-H358, K-Ras G12C, 5-day treatment, read-out: H358 Cell Viability IC50
[4] = AsPC-1, K-Ras G12D, 5-day treatment, read-out: AsPC-1 Cell Viability IC50
[5] = ASPC1, AsPC-1 cells, K-Ras G12D, read-out: pERK EC50 (AsPC-1 KRAS G12D)
[6] = read-out: H358 Cell Viability IC50, NCI-H358, K-Ras G12C, 5-day treatment

| Compound | IC50 (NCI-H358 (K-Ras G12C); [3]) | IC50 (AsPC-1 (K-Ras G12D) [1]; [4]) | EC50 (AsPC-1 (K-Ras G12D) [2]; [5]) | IC50 (NCI-H358 (K-Ras G12C); [6]) | EC50 (AsPC-1 (K-Ras G12D) [2]; ASPC1, read-out: pERK EC50 (AsPC-1 KRAS G12D)) | IC50 (AsPC-1 (K-Ras G12D) [1]; read-out: AsPC-1 Cell Viability IC50, AsPC-1, K-Ras G12D, 5-day treatment) |
| --- | --- | --- | --- | --- | --- | --- |
| CCn1c(-c2cnccc2COC)c2c3cc(ccc31)-c1cccc(c1)C[C@H](NC(=O)[C@H](C(C)C)N(C)C(=O)CCN=C=NCc1ccc(OC)cc1)C(=O)N1CCC[C@H](N1)C(=O)OCC(C)(C)C2 (atropisomer, axis not shown) [18 A and B] | 1000 to 10000 nM | 1000 to 10000 nM |  |  |  |  |
| CCn1c(-c2cnccc2COC)c2c3cc(ccc31)-c1cc(O)cc(c1)C[C@H](NC(=O)[C@H](C(C)C)N(C)C(=O)CCN(C)C(=O)[C@H]1CN1)C(=O)N1CCC[C@H](N1)C(=O)OCC(C)(C)C2 (single isomer, unassigned) [Compound 41] | 10 to 100 nM | > 10000 nM |  |  |  |  |
| CCn1c(-c2cccnc2[C@H](C)OC)c2c3cc(ccc31)-c1cc(O)cc(c1)C[C@H](NC(=O)[C@H](C(C)C)N(C)C(=O)[C@H]1CCN(C(=O)[C@H]3CN3)C1)C(=O)N1CCC[C@H](N1)C(=O)OCC(C)(C)C2 (single isomer, unassigned) [Compound 43A] | < 10 nM | 100 to 1000 nM | < 5000 nM |  |  |  |
| CCn1c(-c2cccnc2[C@H](C)OC)c2c3cc(ccc31)-c1cc(O)cc(c1)C[C@H](NC(=O)[C@H](C(C)C)N(C)C(=O)[C@H]1CCN(S(=O)(=O)[C@@H]3CN3C)C1)C(=O)N1CCC[C@H](N1)C(=O)OCC(C)(C)C2 (single isomer, unassigned) [Compound 56] | 100 to 1000 nM | 1000 to 10000 nM | < 5000 nM |  |  |  |
| CCn1c(-c2cccnc2[C@H](C)OC)c2c3cc(ccc31)-c1cc(O)cc(c1)C[C@H](NC(=O)[C@H](C1CCCC1)N(C)C(=O)CN(C)C(=O)[C@H]1N[C@H]1C1(OC)CC1)C(=O)N1CCC[C@H](N1)C(=O)OCC(C)(C)C2 (single isomer, unassigned) [Compound 322] | 10 to 100 nM | 1000 to 10000 nM | < 5000 nM |  |  |  |
| CCn1c(-c2cccnc2[C@H](C)OC)c2c3cc(ccc31)-c1cc(O)cc(c1)C[C@H](NC(=O)[C@H](C1CCCC1)N(C)C(=O)CN(C)C(=O)[C@@H]1N[C@@H]1C1(OC)CC1)C(=O)N1CCC[C@H](N1)C(=O)OCC(C)(C)C2 (single isomer, unassigned) [Compound 323] | 10 to 100 nM | 100 to 1000 nM | < 5000 nM |  |  |  |
| CCn1c(-c2cnccc2COC)c2c3cc(ccc31)-c1cccc(c1)C[C@H](NC(=O)[C@H](C(C)C)N(C)C(=O)CCN=C=NCCCSC)C(=O)N1CCC[C@H](N1)C(=O)OCC(C)(C)C2 [16 A and B] | 1000 to 10000 nM | 1000 to 10000 nM |  |  |  |  |
| CCn1c(-c2cnccc2COC)c2c3cc(ccc31)-c1cccc(c1)C[C@H](NC(=O)[C@H](C(C)C)N(C)C(=O)CCN=C=NCc1ccccc1)C(=O)N1CCC[C@H](N1)C(=O)OCC(C)(C)C2 [19 A and B] | 1000 to 10000 nM | 100 to 1000 nM |  |  |  |  |
| CCn1c(-c2cnccc2COC)c2c3cc(ccc31)-c1cccc(c1)C[C@H](NC(=O)[C@H](C(C)C)N(C)C(=O)CCN=C=Nc1ccccc1OC)C(=O)N1CCC[C@H](N1)C(=O)OCC(C)(C)C2 [20 A and B] | 1000 to 10000 nM | > 10000 nM |  |  |  |  |
| CCn1c(-c2cnccc2COC)c2c3cc(ccc31)-c1cccc(c1)C[C@H](NC(=O)[C@H](C(C)C)N(C)C(=O)CCN=C=NCCOC)C(=O)N1CCC[C@H](N1)C(=O)OCC(C)(C)C2 [23 A and B] | 1000 to 10000 nM | 1000 to 10000 nM |  |  |  |  |
| CCn1c(-c2cnccc2COC)c2c3cc(ccc31)-c1cccc(c1)C[C@H](NC(=O)[C@H](C(C)C)N(C)C(=O)CCN=C=Nc1ccc(OC)cc1OC)C(=O)N1CCC[C@H](N1)C(=O)OCC(C)(C)C2 [24 A and B] | 1000 to 10000 nM | > 10000 nM |  |  |  |  |
| CCn1c(-c2cnccc2COC)c2c3cc(ccc31)-c1cccc(c1)C[C@H](NC(=O)[C@H](C(C)C)N(C)C(=O)CCN=C=NCc1c(OC)cccc1OC)C(=O)N1CCC[C@H](N1)C(=O)OCC(C)(C)C2 [62 A and B] | 1000 to 10000 nM | 1000 to 10000 nM |  |  |  |  |
| CCn1c(-c2cnccc2COC)c2c3cc(ccc31)-c1cccc(c1)C[C@H](NC(=O)[C@H](C(C)C)N(C)C(=O)CCN=C=NCCc1cccs1)C(=O)N1CCC[C@H](N1)C(=O)OCC(C)(C)C2 [68 A and B] | 1000 to 10000 nM | 1000 to 10000 nM |  |  |  |  |
| CCn1c(-c2cnccc2COC)c2c3cc(ccc31)-c1cc(O)cc(c1)C[C@H](NC(=O)[C@H](C(C)C)N(C)C(=O)[C@H]1CCN(C(=O)[C@@H]3CN3)C1)C(=O)N1CCC[C@H](N1)C(=O)OCC(C)(C)C2 [Compound 2] | 10 to 100 nM | > 10000 nM |  |  |  |  |
| CCn1c(-c2cnccc2COC)c2c3cc(ccc31)-c1cc(O)cc(c1)C[C@H](NC(=O)[C@H](C(C)C)N(C)C(=O)C1CCN(C(=O)[C@H]3CN3)CC1)C(=O)N1CCC[C@H](N1)C(=O)OCC(C)(C)C2 [Compound 3] | 100 to 1000 nM | > 10000 nM |  |  |  |  |
| CCn1c(-c2cnccc2COC)c2c3cc(ccc31)-c1cc(O)cc(c1)C[C@H](NC(=O)[C@H](C(C)C)N(C)C(=O)C1CCN(C(=O)[C@@H]3CN3)CC1)C(=O)N1CCC[C@H](N1)C(=O)OCC(C)(C)C2 [Compound 4] | 100 to 1000 nM | > 10000 nM |  |  |  |  |
| CCn1c(-c2cnccc2COC)c2c3cc(ccc31)-c1cc(O)cc(c1)C[C@H](NC(=O)[C@H](C(C)C)N(C)C(=O)C1CN(C(=O)[C@H]3CN3)C1)C(=O)N1CCC[C@H](N1)C(=O)OCC(C)(C)C2 [Compound 5] | 10 to 100 nM | > 10000 nM |  |  |  |  |
| CCn1c(-c2cnccc2COC)c2c3cc(ccc31)-c1cc(O)cc(c1)C[C@H](NC(=O)[C@H](C(C)C)N(C)C(=O)C1CN(C(=O)[C@@H]3CN3)C1)C(=O)N1CCC[C@H](N1)C(=O)OCC(C)(C)C2 [Compound 6] | 100 to 1000 nM | > 10000 nM |  |  |  |  |
| CCn1c(-c2cnccc2COC)c2c3cc(ccc31)-c1cc(O)cc(c1)C[C@H](NC(=O)[C@H](C(C)C)N(C)C(=O)CCN(C)C(=O)[C@@H]1CN1)C(=O)N1CCC[C@H](N1)C(=O)OCC(C)(C)C2 [Compound 40] | 100 to 1000 nM | > 10000 nM |  |  |  |  |
| CCn1c(-c2cnccc2COC)c2c3cc(ccc31)-c1cc(O)cc(c1)C[C@H](NC(=O)[C@H](C(C)C)N(C)C(=O)N1CCCN(C(=O)[C@H]3CN3)CC1)C(=O)N1CCC[C@H](N1)C(=O)OCC(C)(C)C2 [Compound 44] | < 10 nM | 1000 to 10000 nM |  |  |  |  |
| CCn1c(-c2cnccc2COC)c2c3cc(ccc31)-c1cc(O)cc(c1)C[C@H](NC(=O)[C@H](C(C)C)N(C)C(=O)N1CCCN(C(=O)[C@@H]3CN3)CC1)C(=O)N1CCC[C@H](N1)C(=O)OCC(C)(C)C2 [Compound 45] | 100 to 1000 nM | > 10000 nM |  |  |  |  |
| CCn1c(-c2cnccc2COC)c2c3cc(ccc31)-c1cc(O)cc(c1)C[C@H](NC(=O)[C@H](C(C)C)N(C)C(=O)c1ccc(NC(=O)[C@@H]3CN3)cn1)C(=O)N1CCC[C@H](N1)C(=O)OCC(C)(C)C2 [Compound 46] | 100 to 1000 nM | > 10000 nM |  |  |  |  |
| CCn1c(-c2cnccc2COC)c2c3cc(ccc31)-c1cccc(c1)C[C@H](NC(=O)[C@H](C(C)C)N(C)C(=O)CCN=C=Nc1ccc(N(C)C)cc1)C(=O)N1CCC[C@H](N1)C(=O)OCC(C)(C)C2 [Compound 66] | 1000 to 10000 nM | > 10000 nM |  |  |  |  |
| CCn1c(-c2cnccc2COC)c2c3cc(ccc31)-c1cccc(c1)C[C@H](NC(=O)[C@H](C(C)C)N(C)C(=O)CCN=C=Nc1ccc(N3CCOCC3)cc1)C(=O)N1CCC[C@H](N1)C(=O)OCC(C)(C)C2 [Compound 67] | > 10000 nM | > 10000 nM |  |  |  |  |
| CCn1c(-c2cccnc2[C@H](C)OC)c2c3cc(ccc31)-c1cc(O)cc(c1)C[C@H](NC(=O)[C@H](C(C)C)N(C)C(=O)CN(C)C(=O)[C@H]1N[C@@H]1C1CC1)C(=O)N1CCC[C@H](N1)C(=O)OCC(C)(C)C2 [Compound 136] |  |  |  | < 10 nM | < 5000 nM |  |
| CCn1c(-c2cccnc2[C@H](C)OC)c2c3cc(ccc31)-c1cc(O)cc(c1)C[C@H](NC(=O)[C@H](C(C)C)N(C)C(=O)CN(C)C(=O)[C@H]1CN1CCOC)C(=O)N1CCC[C@H](N1)C(=O)OCC(C)(C)C2 (stereo partly drawn) [Compound 159] |  |  |  | < 10 nM |  | 100 to 1000 nM |
| CCn1c(-c2cccnc2[C@H](C)OC)c2c3cc(ccc31)-c1cc(O)cc(c1)C[C@H](NC(=O)[C@H](C(C)C)N(C)C(=O)[C@@]1(C)CCCN1C(=O)[C@@H]1CN1)C(=O)N1CCC[C@H](N1)C(=O)OCC(C)(C)C2 [Compound 241] | < 10 nM | 100 to 1000 nM |  |  |  |  |
| CCn1c(-c2cnccc2COC)c2c3cc(ccc31)-c1cc(O)cc(c1)C[C@H](NC(=O)[C@H](C(C)C)N(C)C(=O)[C@H]1CCN(C(=O)[C@@H]3CO3)C1)C(=O)N1CCC[C@H](N1)C(=O)OCC(C)(C)C2 [Example 31, (3S)—N-((2S)-1-(((6^3S,4S)-1^1-ethyl-2^5-hydroxy-1^2-(4-(methoxymethyl)pyridin-3-yl)-10,10-dimethyl-5,7-dioxo-6^1,6^2,6^3,6^4,6^5,6^6-hexahydro-1^1H-8-oxa-1(5,3)-indola-6(1,3)-pyridazina-2(1,3)-benzenacycloundecaphane-4-yl)amino)-3-methyl-1-oxobutan-2-yl)-N-methyl-1-((S)-oxirane-2-carbonyl)pyrrolidine-3-carboxamide] | 1000 to 10000 nM | > 10000 nM |  |  |  |  |
